Measurements published in PubChem BioAssay (NCI).
Values joined by “and” are separate entries in the source; they are usually repeats but may differ in a detail not shown here. Equal values may be shown once.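 Assay format: 96-well plates, 48-hour exposure. GI50: concentration for 50% inhibition of growth. At the TGI there is no net growth.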 Where a SMILES comes first, the peptide text is derived from it. [ ]: non-standard residue; d: D form. The star is where a group is joined. ξ: configuration not given here. ξF = NC(Cc1ccccc1)C(=O)O; Cbz = O=C(OCc1ccccc1)*; Aib = CC(C)(N)C(=O)O

Assays:
Assay in all cases: NCI tumour cell line growth inhibition, 48 h
[1] = tested on: 786-0 renal
[2] = tested on: CCRF-CEM leukemia
[3] = tested on: EKVX NSCLC
[4] = tested on: MDA-MB-231 breast
[5] = tested on: OVCAR-8 ovarian
[6] = tested on: SK-MEL-5 melanoma
[7] = tested on: SR leukemia
[8] = tested on: UO-31 renal
[9] = tested on: HOP-62 NSCLC
[10] = tested on: SNB-78 CNS
[11] = tested on: XF 498 CNS

Compound	TGI [1] [µM]	TGI [2]	TGI [3]	TGI [4] [µM]	TGI [5]	TGI [6]	TGI [7] [µM]	TGI [8]	TGI [9]	GI50 [5] [µM]	TGI [10]	TGI [11] [µM]	GI50 [2] [µM]	GI50 [3] [µM]	GI50 [9] [µM]	GI50 [4] [µM]	GI50 [6] [µM]	GI50 [7] [µM]	GI50 [8] [µM]	GI50 [10] [µM]
CCCCCCCCCCCCCC1=C(O)C(=O)C(CC2=C(O)C(=O)C(CCCCCCCCCCCCC)=C(O)C2=O)=C(O)C1=O	> 100	> 100 µM	> 100 µM	> 100	> 100 µM	> 100 µM	> 100	> 100 µM	–	–	–	–	–	–	–	–	–	–	–	–
CC[C@@]1(O)C(=O)OCc2c1cc1n(c2=O)Cc2cc3ccccc3nc2-1	–	0.0159 µM	1.6 µM	–	0.555 µM	0.181 µM	0.0769	0.234 µM	0.132 µM	0.0246	> 20.5 µM	0.259	–	–	–	–	–	–	–	–
C=C1C(=O)O[C@@H]2/C=C(\C)CC/C=C(\C)CC[C@@]12O	2.71	0.607 µM	12.1 µM	22.8	5.18 µM	15.5 µM	10.8	2.86 µM	15.6 µM	–	–	–	–	–	–	–	–	–	–	–
COc1ccccc1CC(C)N (stereo not drawn)	> 100	> 100 µM	> 100 µM	–	> 100 µM	> 100 µM	–	> 100 µM	> 100 µM	–	> 100 µM	> 100	–	–	–	–	–	–	–	–
CCN1c2cc(Br)cc3[nH]c(=O)n(c23)CCC1C (stereo not drawn)	28.1	> 100 µM	23.5 µM	43.1	30.9 µM	30 µM	65.9	37.7 µM	37.2 µM	–	–	–	–	–	–	–	–	–	–	–
Nc1[nH]c(=S)nc2nc3c(c(-c4ccccc4)c12)CCCC3	–	–	> 100 µM	> 100	> 100 µM	> 100 µM	> 100	> 100 µM	> 100 µM	–	–	–	–	–	–	–	–	–	–	–
O=C(CSCC(=O)N/N=C/c1ccccc1)N/N=C\c1ccccc1	> 100	> 100 µM	> 100 µM	> 100	> 100 µM	> 100 µM	–	> 100 µM	> 100 µM	–	–	–	–	–	–	–	–	–	–	–
CCCCCCCCCCCCCCCCCCNc1ccn(C2OC(CO)C(OP(=O)(O)OCC(O)COP(=O)(O)OCC3OC(n4cc(F)c(NCCCCCCCCCCCCCCCCCC)nc4=O)CC3O)C2O)c(=O)n1 (stereo not drawn)	> 50	–	> 50 µM	> 50	> 50 µM	> 50 µM	–	> 50 µM	> 50 µM	–	–	–	–	–	–	–	–	–	–	–
O=C(Oc1c(Cl)cc(C2(c3cc(Cl)c(OC(=O)c4ccccc4)c(Cl)c3)CCCCC2)cc1Cl)c1ccccc1	27.5	30.1 µM	24.9 µM	27.3	34.1 µM	22.9 µM	–	35.3 µM	33.9 µM	–	–	–	–	–	–	–	–	–	–	–
OC[C@H]1NC[C@@H](O)[C@@H](O)[C@H]1O	–	> 100 µM	–	> 100	> 100 µM	> 100 µM	> 100	> 100 µM	> 100 µM	–	–	–	–	–	–	–	–	–	–	–
CC(C)(C)OC(=O)N1C(OP(=O)(Oc2ccccc2)Oc2ccccc2)=CSc2ccccc21	> 100	–	> 100 µM	77.6	> 100 µM	> 100 µM	> 100	> 100 µM	> 100 µM	–	–	–	–	–	–	–	–	–	–	–
CC(C)CCCC(C)[C@H]1CC[C@H]2n3c(nc4ccccc43)CCC[C@]12C (stereo partly drawn)	37.3	49 µM	–	33	37.2 µM	32.8 µM	37.2	28.6 µM	40.6 µM	–	–	–	–	–	–	–	–	–	–	–
CCc1n[nH]c(=O)n1/N=C(\C)c1ccc([N+](=O)[O-])cc1	> 100	> 100 µM	> 100 µM	> 100	> 100 µM	> 100 µM	–	> 100 µM	> 100 µM	–	–	–	–	–	–	–	–	–	–	–
O=C(NC(Cc1ccc(Br)cc1)C(=O)O)c1ccc(I)cc1 (stereo not drawn)	–	> 100 µM	> 100 µM	–	> 100 µM	> 100 µM	–	> 100 µM	> 100 µM	–	> 100 µM	> 100	–	–	–	–	–	–	–	–
NC(=O)C1CCCN1C(=O)C(N)Cc1ccccc1 (stereo not drawn) (H-Phe-Pro-NH2; configuration not given here)	–	> 100 µM	> 100 µM	> 100	> 100 µM	> 100 µM	> 100	> 100 µM	> 100 µM	–	–	–	–	–	–	–	–	–	–	–
Clc1cc(Cl)c2cc3cccc[n+]3cc2c1Cl	46.7	37.2 µM	30.8 µM	48.9	31 µM	30.5 µM	32.9	28.4 µM	31.6 µM	–	–	–	–	–	–	–	–	–	–	–
Nc1ccc(O)c2c1C(=O)c1c(N)ccc(O)c1C2=O	> 100	> 100 µM	> 100 µM	–	> 100 µM	> 100 µM	–	> 100 µM	> 100 µM	–	> 100 µM	> 100	–	–	–	–	–	–	–	–

Compound	TGI [1] [µM]	TGI [2]	TGI [3]	TGI [4] [µM]	TGI [5]	TGI [6]	TGI [7] [µM]	TGI [8]	TGI [9]	GI50 [5] [µM]	TGI [10]	TGI [11] [µM]	GI50 [2] [µM]	GI50 [3] [µM]	GI50 [9] [µM]	GI50 [4] [µM]	GI50 [6] [µM]	GI50 [7] [µM]	GI50 [8] [µM]	GI50 [10] [µM]
CN(C)CCNC(=O)c1cc(Cl)cc2cc3ccccc3nc12	–	3.28 µM	4.81 µM	–	6.18 µM	2.6 µM	–	4.12 µM	5.04 µM	–	7.56 µM	3.37	–	–	–	–	–	–	–	–
CCOC(=O)CNC(=O)C(Cc1ccccc1)NC(=O)C(C)(C)NC(=O)OCc1ccccc1 (stereo not drawn) (Cbz-[Aib]-[ξF]-Gly-OEt)	–	> 100 µM	> 100 µM	> 100	> 100 µM	> 100 µM	> 100	> 100 µM	> 100 µM	–	–	–	–	–	–	–	–	–	–	–
CN(Cc1cn(O)c2nc(=N)nc(N)c-2n1)c1ccc(C(=O)NC23CC4CC(CC(C4)C2)C3)cc1	> 100	> 100 µM	> 100 µM	> 100	> 100 µM	> 100 µM	> 100	> 100 µM	> 100 µM	–	–	–	–	–	–	–	–	–	–	–
CC1(CO)COS(=O)OC1 (stereo not drawn)	–	> 100 µM	–	> 100	> 100 µM	> 100 µM	> 100	> 100 µM	–	–	–	–	–	–	–	–	–	–	–	–
COc1cc(/C=N/c2nc3cc4sc(/N=C/c5cc(OC)c(OC)c(OC)c5)nc4cc3s2)cc(OC)c1OC	> 100	–	> 100 µM	> 100	> 100 µM	> 100 µM	> 100	> 100 µM	> 100 µM	–	–	–	–	–	–	–	–	–	–	–
OCC(O)CNc1ncnc2ccccc12 (stereo not drawn)	> 100	> 100 µM	> 100 µM	> 100	> 100 µM	> 100 µM	–	> 100 µM	> 100 µM	–	–	–	–	–	–	–	–	–	–	–
COc1ccc(-c2nc3c(nc2-c2ccc(OC)cc2)C(N)=NS(=O)(=O)N3)cc1	> 100	> 100 µM	> 100 µM	–	> 100 µM	> 100 µM	–	> 100 µM	> 100 µM	–	–	–	–	–	–	–	–	–	–	–
CC1C(=O)CC(c2cccs2)N(N=O)C1c1cccs1 (stereo not drawn)	–	> 100 µM	> 100 µM	–	> 100 µM	> 100 µM	–	> 100 µM	> 100 µM	–	> 85.2 µM	45.3	–	–	–	–	–	–	–	–
O=C1c2cccnc2C(=O)c2c1c(C(=O)OCCN1CCCCC1)c1ccccn21	–	5 µM	7.52 µM	12.6	1.02 µM	0.113 µM	0.0828	1.67 µM	0.0313 µM	0.0344	–	–	0.294	0.851	0.00554	0.731	0.0251	0.00698	0.0389	–
CCN(CC)CC[n+]1ccc2c(C)c3[nH]c4ccc(O)cc4c3c(C)c2c1	> 40.7	33 µM and 23.1 µM	38.8 µM and 14.8 µM	36.6	44.6 µM and 13.3 µM	12.6 µM and 27.1 µM	1.74	> 96.1 µM and 150 µM	13.4 µM and 18.9 µM	1.23	44.1 µM and 59.5 µM	–	0.808	2.03	–	–	4.5	–	20.6	5.71
S=c1c2[nH]cnc2ncn1CCSC1=NC=NC2=NC=NC21 (stereo not drawn)	> 100	> 100 µM	> 100 µM	> 100	> 100 µM	> 100 µM	> 100	> 100 µM	> 100 µM	–	> 100 µM	> 100	–	–	–	–	–	–	–	–
CC(C)(C)c1ccc2c(c1)C#Cc1cc(C(C)(C)C)ccc1OCCCO2	> 100	> 100 µM	> 100 µM	> 100	> 100 µM	> 100 µM	–	> 100 µM	> 100 µM	–	–	–	–	–	–	–	–	–	–	–
CNC1Cc2c[nH]c3cccc(c23)C12C=C(C)C(=O)O2 (stereo not drawn)	> 100	> 100 µM	> 100 µM	> 100	> 100 µM	> 100 µM	> 100	> 100 µM	> 100 µM	–	–	–	–	–	–	–	–	–	–	–
NC(CCOCCP(=O)(O)CCC1C=CC=CC1)C(=O)O (stereo not drawn)	–	> 100 µM	> 100 µM	> 100	> 100 µM	> 100 µM	> 100	> 100 µM	–	–	–	–	–	–	–	–	–	–	–	–
CCOC(=O)CCC(C(=O)OCC)n1nc2ccc(Nc3c(C)[n+]([O-])c4cc(F)c(OCC)cc4[n+]3[O-])cc2n1 (stereo not drawn)	71.5	> 100 µM	98.1 µM	–	> 100 µM	> 100 µM	> 100	> 100 µM	40.8 µM	–	–	–	–	–	–	–	–	–	–	–
CSc1nc(CO)c(CO)n1C	–	> 100 µM	> 100 µM	–	> 100 µM	> 100 µM	–	> 100 µM	> 100 µM	–	> 100 µM	> 100	–	–	–	–	–	–	–	–
Cc1[nH]c(=O)[nH]c(=O)c1/C=C/C(=O)NC(CO)CS(=O)CS(C)=O (stereo not drawn)	–	111 µM	66.4 µM	–	122 µM	76.9 µM	–	130 µM	94.5 µM	–	97.5 µM	8.12	–	–	–	–	–	–	–	–
